Here are results for 2 molecules from US10039761B2, “Co-crystals and pharmaceutical compositions comprising the same” (Vertex Pharmaceuticals Incorporated, priority 2013, dated 2018).

For assay [1], the system named is OD26749 primary NSCLC xenograft. Nature of the assay: OD26749 primary NSCLC xenograft efficacy with whole body IR. The settings on record: for % T/C (Day 29): 2 Gy IR ([…]) q7dx2. The format is in vivo, nude mice.
Assay [2] deals with panel of 60 cancer cell lines. Nature of the assay: Double combinations in 60 cancer cell line panel (ATPLite, Bliss). The format is cell-based. The settings on record: 144 hours. On the procedure: The cell-based experiments and assays were performed with either molecule but not always with both. Compounds (1) and (2) were generally very similar in those assays and experiments. Analysis of the combination experiments was performed using two methods: the Bliss Additivity model and the Mixtures Blend method to determine the degree of synergy, additivity, or antagonism. In the Bliss method, a matrix of Bliss scores was generated for each cell line and treatment, and a sum of the Bliss values over the range of combination concentrations tested was calculated. […] Larger average Bliss values indicate greater confidence in reporting synergy, and smaller scores indicate greater confidence in reporting antagonism. In the Mixtures Blend method combinants were added in a range of optimal ratios using design of experiment (DOE) software (DX-8 from STAT-EASE); the cells were irradiated with 2 Gy as required. Synergy was determined using statistical analysis of the data (ANOVA) to indicate linear (additivity) or statistically significant (p<0.1) non-linear (antagonism or synergy) mixes of the combinants. Compound (2) was tested against a panel of 60 cancer cell lines (see Table 16) alone and in combination with a panel of cytotoxic and non-cytotoxic SOC agents. The 60 cancer cell lines represent lines derived from breast cancer, prostate cancer, lung cancer, acute myeloid leukemia (AML), myeloma and other cancers. Cells were removed from liquid nitrogen storage, thawed and expanded in appropriate growth media. Once expanded, cells were seeded in 384-well tissue culture treated plates at 500 cells per well. […] At the end of either 0 hours or 144 hours, cell status was analyzed using ATPLite (Perkin Elmer) to assess the biological response of cells to drug combinations.

On to `CNC(=O)c1ccnc2c([C@H](C)CNc3cc(-c4cnc(C)nc4)ncn3)cccc12` [Compound (1), (S)-N-methyl-8-(1-((2′-methyl-[4,5′-bipyrimidin]-6-yl)amino)propan-2-yl)quinoline-4-carboxamide], for which the “% T/C (Day 29)” value is 25.6% in assay [1] (PO 25 mg/kg bid (0, 4 h)) and 6.5% in assay [1] (PO 200 mg/kg qd). Besides, the “% T/C (Day 20)” value in assay [1] (PO 100 mg/kg tid (0, 3, 7 h) qdx1, 2 Gy qdx1 (3.25 h) whole body IR, 100 mg/kg) amounted to 26%; in assay [1] (PO 100 mg/kg tid (0, 3, 7 h) qdx1, no IR) it was 101%.
In the case of `[2H]c1nc(C)nc([2H])c1-c1cc(NC[C@@H](C)c2cccc3c(C(=O)NC)ccnc23)ncn1` [Compound (2), (S)-N-methyl-8-(1-((2′-methyl-4′,6′-dideutero-[4,5′-bipyrimidin]-6-yl)amino)propan-2-yl)quinoline-4-carboxamide], the “Bliss analysis, combination effect” value in assay [2] (in combination with bleomycin), in assay [2] (in combination with doxorubicin) and in assay [2] (in combination with etoposide) was “strong synergy (greater than 10 indicates strong synergy)” in each case.
